How the values were obtained:
[1] = system: performance on a trail making task; settings: versus an SSRI; cited from earlier work
[2] = system: unselected depression patients; settings: monotherapy, meta-analytically calculated; cited from earlier work
[3] = system: patients with major depressive disorder; experiment: Open-label trials of adjunctive agomelatine 25 mg at bedtime in MDD; baseline EEG models predicting change in MADRS; type: in vivo, human
sleep measures = settings: cited from earlier work
circadian rhythm = settings: in vivo; cited from earlier work

SMILES: COc1ccc2cccc(CCNC(C)=O)c2c1 [agomelatine, N-[2-(7-methoxynaphthalen-1-yl)ethyl]acetamide]
- performance on a trail making task [1]: superior to an SSRI
- all-comer effect size d, treatment response to agomelatine versus placebo [2]: 0.26
- prediction of agomelatine outcome by relative power ([3]; EEG machine learning model): not predictive
- prediction of agomelatine outcome by aperiodic exponent ([3]; EEG machine learning model, significant at week 4): also predictive
- Cohen's d effect size, predicted responders vs predicted non-responders, change in MADRS ([3]; EEG sample entropy machine learning model, cross-validation left-out data of training dataset, all weeks, FIG. 2A): > 0.4
- Cohen's d, predicted agomelatine responders vs non-responders, observed change in MADRS ([3]; EEG sample entropy machine learning model, holdout dataset, weeks 4, 6 and 8, FIG. 2B): ≥ 0.4
- implied agomelatine-placebo difference, d ([3]; EEG-predicted non-responders (sample entropy model), full sample): −0.06
- implied agomelatine-placebo response, d ([3]; EEG-predicted responders (sample entropy model), week 8, full sample): 0.58
- implied agomelatine-placebo difference, d ([3]; Pz low gamma sample entropy alone, high entropy patients, full sample): 0.51
- implied agomelatine-placebo difference, d ([3]; Pz low gamma sample entropy alone, low entropy patients, full sample): 0.0
- d (Cohen's d, prediction of agomelatine outcome) ([3]; REC, Approximate Entropy, lower gamma, Week 1): 0.23
- d (Cohen's d, prediction of agomelatine outcome) ([3]; REC, Approximate Entropy, lower gamma, Week 2): 0.29
- d (Cohen's d, prediction of agomelatine outcome) ([3]; REC, Approximate Entropy, lower gamma, Week 4): 0.46
- d (Cohen's d, prediction of agomelatine outcome) ([3]; REC, Detrended Fluctuation Analysis, lower beta, Week 1): 0.49
- d (Cohen's d, prediction of agomelatine outcome) ([3]; REC, Detrended Fluctuation Analysis, lower beta, Week 2): 0.44
- d (Cohen's d, prediction of agomelatine outcome) ([3]; REC, Detrended Fluctuation Analysis, lower beta, Week 4): 0.41
- d (Cohen's d, prediction of agomelatine outcome) ([3]; REC, Detrended Fluctuation Analysis, upper beta, Week 1): 0.19
- d (Cohen's d, prediction of agomelatine outcome) ([3]; REC, Detrended Fluctuation Analysis, upper beta, Week 2): 0.20
- d (Cohen's d, prediction of agomelatine outcome) ([3]; REC, Detrended Fluctuation Analysis, upper beta, Week 4): 0.25
- d (Cohen's d, prediction of agomelatine outcome) ([3]; REC, Higuchi Fractal Dimension, lower beta, Week 1): 0.44
- d (Cohen's d, prediction of agomelatine outcome) ([3]; REC, Higuchi Fractal Dimension, lower beta, Week 2): 0.36
- d (Cohen's d, prediction of agomelatine outcome) ([3]; REC, Higuchi Fractal Dimension, lower beta, Week 4): 0.28
- d (Cohen's d, prediction of agomelatine outcome) ([3]; REC, Higuchi Fractal Dimension, lower gamma, Week 1): 0.64
- d (Cohen's d, prediction of agomelatine outcome) ([3]; REC, Higuchi Fractal Dimension, lower gamma, Week 2): 0.58
- d (Cohen's d, prediction of agomelatine outcome) ([3]; REC, Higuchi Fractal Dimension, lower gamma, Week 4): 0.57
- d (Cohen's d, prediction of agomelatine outcome) ([3]; REC, Higuchi Fractal Dimension, upper beta, Week 1): −0.29
- d (Cohen's d, prediction of agomelatine outcome) ([3]; REC, Higuchi Fractal Dimension, upper beta, Week 2): −0.20
- d (Cohen's d, prediction of agomelatine outcome) ([3]; REC, Higuchi Fractal Dimension, upper beta, Week 4): −0.05
- d (Cohen's d, prediction of agomelatine outcome) ([3]; REC, Higuchi Fractal Dimension, upper gamma, Week 1): 0.16
- d (Cohen's d, prediction of agomelatine outcome) ([3]; REC, Higuchi Fractal Dimension, upper gamma, Week 2): 0.16
- d (Cohen's d, prediction of agomelatine outcome) ([3]; REC, Higuchi Fractal Dimension, upper gamma, Week 4): 0.21
- d (Cohen's d, prediction of agomelatine outcome) ([3]; REC, Katz Fractal Dimension, lower beta, Week 1): 0.47
- d (Cohen's d, prediction of agomelatine outcome) ([3]; REC, Katz Fractal Dimension, lower beta, Week 2): 0.42
- d (Cohen's d, prediction of agomelatine outcome) ([3]; REC, Katz Fractal Dimension, lower beta, Week 4): 0.37
- d (Cohen's d, prediction of agomelatine outcome) ([3]; REC, Katz Fractal Dimension, lower gamma, Week 1): 0.25
- d (Cohen's d, prediction of agomelatine outcome) ([3]; REC, Katz Fractal Dimension, lower gamma, Week 2): 0.23
- d (Cohen's d, prediction of agomelatine outcome) ([3]; REC, Katz Fractal Dimension, lower gamma, Week 4): 0.23
- d (Cohen's d, prediction of agomelatine outcome) ([3]; REC, Katz Fractal Dimension, upper beta, Week 1): 0.42
- d (Cohen's d, prediction of agomelatine outcome) ([3]; REC, Katz Fractal Dimension, upper beta, Week 2): 0.40
- d (Cohen's d, prediction of agomelatine outcome) ([3]; REC, Katz Fractal Dimension, upper beta, Week 4): 0.42
- d (Cohen's d, prediction of agomelatine outcome) ([3]; REC, Katz Fractal Dimension, upper gamma, Week 1): 0.04
- d (Cohen's d, prediction of agomelatine outcome) ([3]; REC, Katz Fractal Dimension, upper gamma, Week 2): 0.10
- d (Cohen's d, prediction of agomelatine outcome) ([3]; REC, Katz Fractal Dimension, upper gamma, Week 4): 0.23
- d (Cohen's d, prediction of agomelatine outcome) ([3]; REC, Largest Lyapunov Exponent, upper alpha, Week 1): 0.10
- d (Cohen's d, prediction of agomelatine outcome) ([3]; REC, Largest Lyapunov Exponent, upper alpha, Week 2): 0.12
- d (Cohen's d, prediction of agomelatine outcome) ([3]; REC, Largest Lyapunov Exponent, upper alpha, Week 4): 0.18
- d (Cohen's d, prediction of agomelatine outcome) ([3]; REC, Largest Lyapunov Exponent, upper gamma, Week 1): −0.02
- d (Cohen's d, prediction of agomelatine outcome) ([3]; REC, Largest Lyapunov Exponent, upper gamma, Week 2): 0.08
- d (Cohen's d, prediction of agomelatine outcome) ([3]; REC, Largest Lyapunov Exponent, upper gamma, Week 4): 0.29
- d (Cohen's d, prediction of agomelatine outcome) ([3]; REC, Lempel-Ziv Complexity, lower gamma, Week 1): −0.06
- d (Cohen's d, prediction of agomelatine outcome) ([3]; REC, Lempel-Ziv Complexity, lower gamma, Week 2): 0.01
- d (Cohen's d, prediction of agomelatine outcome) ([3]; REC, Lempel-Ziv Complexity, lower gamma, Week 4): 0.15
- d (Cohen's d, prediction of agomelatine outcome) ([3]; REC, Lempel-Ziv Complexity, upper alpha, Week 1): 0.21
- d (Cohen's d, prediction of agomelatine outcome) ([3]; REC, Lempel-Ziv Complexity, upper alpha, Week 2): 0.17
- d (Cohen's d, prediction of agomelatine outcome) ([3]; REC, Lempel-Ziv Complexity, upper alpha, Week 4): 0.13
- d (Cohen's d, prediction of agomelatine outcome) ([3]; REC, Modified Multiscale Entropy, lower alpha, Week 1): 0.08
- d (Cohen's d, prediction of agomelatine outcome) ([3]; REC, Modified Multiscale Entropy, lower alpha, Week 2): 0.11
- d (Cohen's d, prediction of agomelatine outcome) ([3]; REC, Modified Multiscale Entropy, lower alpha, Week 4): 0.19
- d (Cohen's d, prediction of agomelatine outcome) ([3]; REC, Modified Multiscale Entropy, lower gamma, Week 1): −0.09
- d (Cohen's d, prediction of agomelatine outcome) ([3]; REC, Modified Multiscale Entropy, lower gamma, Week 2): 0.01
- d (Cohen's d, prediction of agomelatine outcome) ([3]; REC, Modified Multiscale Entropy, lower gamma, Week 4): 0.21
- d (Cohen's d, prediction of agomelatine outcome) ([3]; REC, Modified Multiscale Entropy, upper alpha, Week 1): 0.19
- d (Cohen's d, prediction of agomelatine outcome) ([3]; REC, Modified Multiscale Entropy, upper alpha, Week 2): 0.25
- d (Cohen's d, prediction of agomelatine outcome) ([3]; REC, Modified Multiscale Entropy, upper alpha, Week 4): 0.39
- d (Cohen's d, prediction of agomelatine outcome) ([3]; REC, Multiscale Entropy, upper alpha, Week 1): 0.05
- d (Cohen's d, prediction of agomelatine outcome) ([3]; REO, Approximate Entropy, lower gamma, Week 1): −0.15
- d (Cohen's d, prediction of agomelatine outcome) ([3]; REO, Approximate Entropy, lower gamma, Week 2): −0.05
- d (Cohen's d, prediction of agomelatine outcome) ([3]; REO, Approximate Entropy, lower gamma, Week 4): 0.09
- d (Cohen's d, prediction of agomelatine outcome) ([3]; REO, Detrended Fluctuation Analysis, upper gamma, Week 1): 0.37
- d (Cohen's d, prediction of agomelatine outcome) ([3]; REO, Detrended Fluctuation Analysis, upper gamma, Week 2): 0.33
- d (Cohen's d, prediction of agomelatine outcome) ([3]; REO, Detrended Fluctuation Analysis, upper gamma, Week 4): 0.32
- d (Cohen's d, prediction of agomelatine outcome) ([3]; REO, Higuchi Fractal Dimension, delta, Week 1): −0.15
- d (Cohen's d, prediction of agomelatine outcome) ([3]; REO, Higuchi Fractal Dimension, delta, Week 2): −0.05
- d (Cohen's d, prediction of agomelatine outcome) ([3]; REO, Higuchi Fractal Dimension, delta, Week 4): 0.12
- d (Cohen's d, prediction of agomelatine outcome) ([3]; REO, Higuchi Fractal Dimension, lower beta, Week 1): 0.03
- d (Cohen's d, prediction of agomelatine outcome) ([3]; REO, Higuchi Fractal Dimension, lower beta, Week 2): 0.03
- d (Cohen's d, prediction of agomelatine outcome) ([3]; REO, Higuchi Fractal Dimension, lower beta, Week 4): 0.05
- d (Cohen's d, prediction of agomelatine outcome) ([3]; REO, Higuchi Fractal Dimension, upper gamma, Week 1): 0.04
- d (Cohen's d, prediction of agomelatine outcome) ([3]; REO, Higuchi Fractal Dimension, upper gamma, Week 2): 0.06
- d (Cohen's d, prediction of agomelatine outcome) ([3]; REO, Higuchi Fractal Dimension, upper gamma, Week 4): 0.11
- d (Cohen's d, prediction of agomelatine outcome) ([3]; REO, Katz Fractal Dimension, delta, Week 1): 0.04
- d (Cohen's d, prediction of agomelatine outcome) ([3]; REO, Katz Fractal Dimension, delta, Week 2): 0.07
- d (Cohen's d, prediction of agomelatine outcome) ([3]; REO, Katz Fractal Dimension, delta, Week 4): 0.13
- d (Cohen's d, prediction of agomelatine outcome) ([3]; REO, Katz Fractal Dimension, lower beta, Week 1): 0.28
- d (Cohen's d, prediction of agomelatine outcome) ([3]; REO, Katz Fractal Dimension, lower beta, Week 2): 0.18
- d (Cohen's d, prediction of agomelatine outcome) ([3]; REO, Katz Fractal Dimension, lower beta, Week 4): 0.06
- d (Cohen's d, prediction of agomelatine outcome) ([3]; REO, Katz Fractal Dimension, upper beta, Week 1): 0.24
- d (Cohen's d, prediction of agomelatine outcome) ([3]; REO, Katz Fractal Dimension, upper beta, Week 2): 0.24
- d (Cohen's d, prediction of agomelatine outcome) ([3]; REO, Katz Fractal Dimension, upper beta, Week 4): 0.29
- d (Cohen's d, prediction of agomelatine outcome) ([3]; REO, Largest Lyapunov Exponent, upper alpha, Week 1): 0.03
- d (Cohen's d, prediction of agomelatine outcome) ([3]; REO, Largest Lyapunov Exponent, upper alpha, Week 2): 0.08
- d (Cohen's d, prediction of agomelatine outcome) ([3]; REO, Largest Lyapunov Exponent, upper alpha, Week 4): 0.17
- d (Cohen's d, prediction of agomelatine outcome) ([3]; REO, Largest Lyapunov Exponent, upper gamma, Week 1): −0.24
- d (Cohen's d, prediction of agomelatine outcome) ([3]; REO, Largest Lyapunov Exponent, upper gamma, Week 2): −0.11
- d (Cohen's d, prediction of agomelatine outcome) ([3]; REO, Largest Lyapunov Exponent, upper gamma, Week 4): 0.08
- d (Cohen's d, prediction of agomelatine outcome) ([3]; REO, Lempel-Ziv Complexity, lower gamma, Week 1): −0.24
- d (Cohen's d, prediction of agomelatine outcome) ([3]; REO, Lempel-Ziv Complexity, lower gamma, Week 2): −0.13
- d (Cohen's d, prediction of agomelatine outcome) ([3]; REO, Lempel-Ziv Complexity, lower gamma, Week 4): 0.02
- d (Cohen's d, prediction of agomelatine outcome) ([3]; REO, Lempel-Ziv Complexity, theta, Week 1): 0.13
- d (Cohen's d, prediction of agomelatine outcome) ([3]; REO, Lempel-Ziv Complexity, theta, Week 2): 0.14
- d (Cohen's d, prediction of agomelatine outcome) ([3]; REO, Lempel-Ziv Complexity, theta, Week 4): 0.17
- d (Cohen's d, prediction of agomelatine outcome) ([3]; REO, Lempel-Ziv Complexity, upper beta, Week 1): 0.19
- d (Cohen's d, prediction of agomelatine outcome) ([3]; REO, Lempel-Ziv Complexity, upper beta, Week 2): 0.21
- d (Cohen's d, prediction of agomelatine outcome) ([3]; REO, Lempel-Ziv Complexity, upper beta, Week 4): 0.30
- d (Cohen's d, prediction of agomelatine outcome) ([3]; REO, Modified Multiscale Entropy, upper beta, Week 1): 0.08
- d (Cohen's d, prediction of agomelatine outcome) ([3]; REO, Modified Multiscale Entropy, upper beta, Week 2): 0.15
- d (Cohen's d, prediction of agomelatine outcome) ([3]; REO, Modified Multiscale Entropy, upper beta, Week 4): 0.31
- d (Cohen's d, prediction of agomelatine outcome) ([3]; REO, Multiscale Entropy, lower gamma, Week 1): −0.41
- d (Cohen's d, prediction of agomelatine outcome) ([3]; REO, Multiscale Entropy, lower gamma, Week 2): −0.21
- d (Cohen's d, prediction of agomelatine outcome) ([3]; REO, Multiscale Entropy, lower gamma, Week 4): 0.05
- MADRS change, high vs low Pz low-gamma sample entropy ([3]; high = z≥0.27, full study sample, all weeks, FIG. 2C): strong and statistically significant prediction of treatment outcome across all weeks
- sleep measures assessed using actigraphic measurements (sleep measures; in contrast to an SSRI): improve sleep measures
- deep to total sleep ratio (sleep measures; in vivo): increasing the deep to total sleep ratio
- effect on circadian rhythm (circadian rhythm): phase advance circadian rhythm
